Reference: patent publication US10294248B2, “Beta-lactamase inhibitors” (VenatoRx Pharmaceuticals, Inc., priority 2013, dated 2019)
pIC50: −log10 of the molar value.

Columns and labels:
[1] = biological target: T1, SHV-5 β-lactamase (Class A ESBL) (Klebsiella pneumoniae, UniProt P0A3M1); assay: β-Lactamase inhibition, SHV-5; assay type: biochemical
T1 construct: made in house; host or cells: E. coli BL21(DE3)
Summary of the method: (§1)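 Compounds are mixed with purified, untagged recombinant β-lactamase and held 15 min at 37 °C. Substrate is then added: nitrocefin (100 μM final) for OXA-1, imipenem for KPC-2, cefotaxime for SHV-5. Absorbance is followed immediately, and percent inhibition per concentration gives the IC50.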

[2] = test system: K. pneumoniae 156319 expressing KPC-3; assay: Broth microdilution MIC, K. pneumoniae 156319 KPC-3; assay type: cell-based; conditions: fixed 4 μg/mL meropenem; CAMHB, 16-20 hours at 37° C.
Summary of the method: (§2)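 Strains were grown 3-5 h in cation-adjusted Mueller Hinton broth, then inoculated per CLSI into plates holding compound dilutions (32 to 0.25 μg/ml, 2-fold) plus a β-lactam fixed at 4 μg/ml. Plates were incubated 16-20 h at 37° C before visual MIC reading.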

[3] = test system: E. cloacae 144200 expressing Class C P99 AmpC; assay: Broth microdilution MIC, E. cloacae 144200 p99 AmpC; assay type: cell-based; conditions: fixed 4 μg/mL ceftazidime; CAMHB, 16-20 hours at 37° C.
Summary of the method: as §2

[4] = biological target: T2, p99 AmpC β-lactamase (Class C) (Enterobacter cloacae, UniProt P05364); assay: β-Lactamase inhibition, p99 AmpC; assay type: biochemical
T2 construct: made in house; host or cells: E. coli BL21(DE3)

[5] = test system: P. aeruginosa Ps296 expressing VIM-2; assay: Broth microdilution MIC, P. aeruginosa Ps296 VIM-2; assay type: cell-based; conditions: fixed 4 μg/mL meropenem; CAMHB, 16-20 hours at 37° C.
Summary of the method: as §2

[6] = test system: E. coli ESBL4 expressing CTX-M-15; assay: Broth microdilution MIC, E. coli ESBL4 CTX-M-15; assay type: cell-based; conditions: fixed 4 μg/mL ceftazidime; CAMHB, 16-20 hours at 37° C.
Summary of the method: as §2

[7] = biological target: T3, OXA-1 β-lactamase (Class D oxacillinase) (Escherichia coli, UniProt P13661); assay: β-Lactamase inhibition, OXA-1; assay type: biochemical; conditions: nitrocefin 100 μM, 486 nm; 15 min preincubation at 37° C., PBS pH 7.4
T3 construct: made in house; host or cells: E. coli BL21(DE3)
Procedure: For SHV-5, Kpc-2, p99AmpC and OXA-1 β-lactamases, E. coli BL21(DE3) bacterial cells carrying expression plasmids (expressed as native untagged proteins) for the individual β-lactamases were grown in 1 L of Superbroth (Teknova Inc. Hollister, Calif.) supplemented with 100 μg/ml kanamycin selection and 1×5052 (0.5% glycerol, 0.05% glucose and 0.2% α-lactose) at 35° C. for 18-20 hours. Cells were harvested by centrifugation (4,000×g, 4° C., 20 min), resuspended in 50 ml of 10 mM HEPES pH 7.5 ( 1/20 of the initial volume). The cells were lysed by sonication (5 pulses of 45 seconds) at 45 W on ice. The lysates were clarified by centrifugation at 10,000×g for 40 minutes at 4° C. Samples were diluted 5-fold in 50 mM sodium acetate pH 5.0, stored overnight at 4° C., after which they were centrifuged at 10,000×g for 30 minutes to clarify, and filtered through 0.45 μm filters. The samples were loaded onto a 5 ml Capto S sepharose cation exchange column (GE Healthcare) pre-equilibrated with 50 mM sodium acetate pH 5.0. The column was washed with 5 column volumes of 50 mM sodium acetate pH 5.0 to wash out unbound protein and a linear gradient of NaCl (0 to 500 mM) was used to elute the protein (over 16 CV) from the column. Fractions were assayed for β-lactamase activity using Centa (Calbiochem, Gibbstown, N.J.) or Nitrocefin (EMD Millipore chemicals, Darmstadt, Germany) as a reporter β-lactamase substrate for activity in the isolated fractions. Active fractions were pooled, concentrated and further purified by gel filtration chromatography on a Superdex 75 prep grade gel filtration column (GE Healthcare, Piscataway, N.J.) pre-equilibrated in 50 mM Hepes pH 7.5, 150 mM NaCl. Active fractions were pooled concentrated, quantitated by BCA protein determination (Thermo Scientific, Rockford, Ill.), dialyzed into PBS and frozen at −80° C. in 20% glycerol until use.
An equal volume of diluted enzyme stock was added, and the plates were incubated at 37° C. for 15 min. Nitrocefin was used as substrate for p99 AmpC, VIM-2 and OXA-1 and dispensed into each well at a final concentration of 100 μM. Absorbance at 486 nm was immediately monitored for 10 min using a Biotek Powerwave XS2 microplate spectrophotometer using the GEN5 software package (Biotek Instruments, Winooski Vt.). In an analogous fashion, imipenem was used as substrate for Kpc-2 and Cefotaxime was used for SHV-5, while changes in absorbance upon hydrolysis of the β-lactam ring were monitored at 300 nm and 260 nm respectively in UV-transparent 96-well microtiter assay plates. Maximum rates of hydrolysis were compared to those in control wells (without inhibitors), and percentages of enzyme inhibition were calculated for each concentration of inhibitor. The concentration of inhibitor needed to reduce the initial rate of hydrolysis of substrate by 50% (IC50) was calculated as the residual activity of β-lactamase at 486 nm using GraFit version 7 kinetics software package (Erithacus Software, Surrey, UK).
Using the methodology described above, examples of the current invention were evaluated for their ability to inhibit β-lactamase enzymes from all four Ambler classifications (A through D). […] NT=Not tested.

[8] = test system: S. aureus MSSA-7 producing penicillinase PC-1; assay: Broth microdilution MIC, S. aureus MSSA-7 PC-1; assay type: cell-based; conditions: fixed 4 μg/mL piperacillin; CAMHB, 16-20 hours at 37° C.
Summary of the method: as §2

[9] = biological target: T4, VIM-2 metallo-β-lactamase (Class B) (Pseudomonas aeruginosa, UniProt Q9K2N0); assay: β-Lactamase inhibition, VIM-2; assay type: biochemical; conditions: nitrocefin 100 μM, 486 nm; 15 min preincubation at 37° C., PBS pH 7.4
T4 construct: made in house; host or cells: E. coli BL21(DE3)
Summary of the method: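 First, VIM-2 purified by repeated anion exchange at pH 7.5 is mixed with inhibitor and held 15 min at 37 °C. Next, nitrocefin (final 100 μM) is dispensed and absorbance at 486 nm monitored immediately for 10 min. Rates versus uninhibited controls give IC50.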

[10] = biological target: T5, KPC-2 β-lactamase (Class A carbapenemase) (Klebsiella pneumoniae, UniProt Q9F663); assay: β-Lactamase inhibition, KPC-2; assay type: biochemical; conditions: imipenem substrate, 300 nm; 15 min preincubation at 37° C., PBS pH 7.4
T5 construct: made in house; host or cells: E. coli BL21(DE3)
Summary of the method: as §1

[11] = test system: K. pneumoniae A-1797 expressing KPC-2 and VIM-4; assay: Broth microdilution MIC, K. pneumoniae A-1797 KPC-2/VIM-4; assay type: cell-based; conditions: fixed 4 μg/mL meropenem; CAMHB, 16-20 hours at 37° C.
Summary of the method: as §2

T1 sequence (P0A3M1 22-286): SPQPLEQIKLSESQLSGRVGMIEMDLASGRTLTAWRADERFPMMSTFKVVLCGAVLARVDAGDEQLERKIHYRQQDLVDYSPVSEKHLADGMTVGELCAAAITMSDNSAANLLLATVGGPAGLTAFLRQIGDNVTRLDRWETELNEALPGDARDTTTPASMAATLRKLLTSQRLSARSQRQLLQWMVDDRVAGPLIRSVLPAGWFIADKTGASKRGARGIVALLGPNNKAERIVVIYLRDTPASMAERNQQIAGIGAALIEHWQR
T3 sequence (P13661 26-276): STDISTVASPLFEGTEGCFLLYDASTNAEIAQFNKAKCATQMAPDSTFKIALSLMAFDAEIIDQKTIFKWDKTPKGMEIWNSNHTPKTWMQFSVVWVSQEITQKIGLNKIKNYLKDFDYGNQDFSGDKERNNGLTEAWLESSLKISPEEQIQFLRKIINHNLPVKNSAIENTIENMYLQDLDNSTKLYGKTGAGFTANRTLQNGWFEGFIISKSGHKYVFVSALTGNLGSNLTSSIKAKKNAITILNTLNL
T2 sequence (P05364 21-381): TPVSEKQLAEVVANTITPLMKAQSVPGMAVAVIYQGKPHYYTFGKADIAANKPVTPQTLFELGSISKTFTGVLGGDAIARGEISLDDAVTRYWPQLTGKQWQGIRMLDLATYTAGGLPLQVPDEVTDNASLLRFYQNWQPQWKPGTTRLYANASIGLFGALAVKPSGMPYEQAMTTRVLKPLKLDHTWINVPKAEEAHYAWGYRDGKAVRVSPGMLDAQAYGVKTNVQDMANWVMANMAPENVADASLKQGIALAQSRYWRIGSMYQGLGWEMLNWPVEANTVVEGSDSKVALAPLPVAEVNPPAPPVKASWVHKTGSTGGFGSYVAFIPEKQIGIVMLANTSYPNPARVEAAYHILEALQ
T5 sequence (Q9F663 25-293, looked up): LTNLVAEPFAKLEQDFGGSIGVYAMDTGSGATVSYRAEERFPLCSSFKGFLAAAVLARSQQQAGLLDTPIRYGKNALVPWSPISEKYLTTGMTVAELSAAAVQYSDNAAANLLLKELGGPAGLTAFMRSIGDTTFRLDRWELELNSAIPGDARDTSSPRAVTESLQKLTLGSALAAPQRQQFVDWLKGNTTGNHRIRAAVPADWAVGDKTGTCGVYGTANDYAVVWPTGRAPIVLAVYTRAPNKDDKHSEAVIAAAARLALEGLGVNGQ

| Compound | pIC50 [1] | MIC of example compound in presence of fixed β-lactam: Fixed Mero, K. P. 156319 KPC-3 [2] | MIC of example compound in presence of fixed β-lactam: Fixed CAZ, E. cl. 144200 p99 AmpC [3] | pIC50 [4] | MIC of example compound in presence of fixed β-lactam: Fixed Mero, P. aerug. Ps296 VIM-2 [5] | MIC of example compound in presence of fixed β-lactam: Fixed CAZ, E. coli ESBL4 CTX-M-15 [6] | pIC50 [7] | MIC of example compound in presence of fixed β-lactam: Fixed Pip, S. aureus MSSA-7 PC-1 [8] | pIC50 [9] | pIC50 [10] | MIC of example compound in presence of fixed β-lactam: Fixed Mero, K. P. A-1797 KPC-2 VIM-4 [11] |
| --- | --- | --- | --- | --- | --- | --- | --- | --- | --- | --- | --- |
| O=C(CN[C@@H]1CCNC1)N[C@H]1Cc2cccc(C(=O)O)c2OB1O [Example 9, 2-Hydroxy-3-[2-(pyrrolidin-3-ylamino)-acetylamino]-3,4-dihydro-2H-benzo[e][1,2]oxaborinine-8-carboxylic acid] | > 7.00 | C (the MIC in the presence of <4 μg/mL of a β-lactamase inhibitor) | C (the MIC in the presence of <4 μg/mL of a β-lactamase inhibitor) | > 7.00 | A (an MIC of the fixed β-lactam antibiotic in the presence of >32 μg/mL of a β-lactamase inhibitor) | C (the MIC in the presence of <4 μg/mL of a β-lactamase inhibitor) | > 7.00 | C (the MIC in the presence of <4 μg/mL of a β-lactamase inhibitor) | 4.00 to 5.00 | > 7.00 | A (an MIC of the fixed β-lactam antibiotic in the presence of >32 μg/mL of a β-lactamase inhibitor) |
| N[C@@H]1CCCN(CC(=O)N[C@H]2Cc3cccc(C(=O)O)c3OB2O)C1 [Example 10, 3-[2-(R-3-Amino-piperidin-1-yl)-acetylamino]-2-hydroxy-3,4-dihydro-2H-benzo[e][1,2]oxaborinine-8-carboxylic acid] | > 7.00 | C (the MIC in the presence of <4 μg/mL of a β-lactamase inhibitor) | C (the MIC in the presence of <4 μg/mL of a β-lactamase inhibitor) | > 7.00 | A (an MIC of the fixed β-lactam antibiotic in the presence of >32 μg/mL of a β-lactamase inhibitor) | C (the MIC in the presence of <4 μg/mL of a β-lactamase inhibitor) | 6.00 to 7.00 | B (the MIC in the presence of between 8 and 32 μg/mL of a β-lactamase inhibitor) | 5.00 to 6.00 | 6.00 to 7.00 | C (the MIC in the presence of <4 μg/mL of a β-lactamase inhibitor) |
| N[C@H]1CCCN(CC(=O)N[C@H]2Cc3cccc(C(=O)O)c3OB2O)C1 [Example 11, 3-[2-(S-3-Amino-piperidin-1-yl)-acetylamino]-2-hydroxy-3,4-dihydro-2H-benzo[e][1,2]oxaborinine-8-carboxylic acid] | > 7.00 | C (the MIC in the presence of <4 μg/mL of a β-lactamase inhibitor) | C (the MIC in the presence of <4 μg/mL of a β-lactamase inhibitor) | > 7.00 | A (an MIC of the fixed β-lactam antibiotic in the presence of >32 μg/mL of a β-lactamase inhibitor) | C (the MIC in the presence of <4 μg/mL of a β-lactamase inhibitor) | 6.00 to 7.00 | A (an MIC of the fixed β-lactam antibiotic in the presence of >32 μg/mL of a β-lactamase inhibitor) | 5.00 to 6.00 | 6.00 to 7.00 | A (an MIC of the fixed β-lactam antibiotic in the presence of >32 μg/mL of a β-lactamase inhibitor) |
| O=C(CN1CCC(O)CC1)N[C@H]1Cc2cccc(C(=O)O)c2OB1O [Example 12, 2-Hydroxy-3-[2-(4-hydroxy-piperidin-1-yl)-acetylamino]-3,4-dihydro-2H-benzo[e][1,2]oxaborinine-8-carboxylic acid] | > 7.00 | C (the MIC in the presence of <4 μg/mL of a β-lactamase inhibitor) | C (the MIC in the presence of <4 μg/mL of a β-lactamase inhibitor) | > 7.00 | B (the MIC in the presence of between 8 and 32 μg/mL of a β-lactamase inhibitor) | C (the MIC in the presence of <4 μg/mL of a β-lactamase inhibitor) | > 7.00 | C (the MIC in the presence of <4 μg/mL of a β-lactamase inhibitor) | 6.00 to 7.00 | > 7.00 | B (the MIC in the presence of between 8 and 32 μg/mL of a β-lactamase inhibitor) |
